# Laboratory results taken from patent publication US20230085307A1, “PYRIDAZINONE COMPOUND AND HERBICIDE” (NISSAN CHEMICAL CORPORATION, priority 2019, published 2023).
# What was measured:
# redroot pigweed [1] = test: Test Example 5: herbicidal effect by foliage application, plastic box (Table 20, symbol N); assay type: in vivo, redroot pigweed (Amaranthus retroflexus); settings: foliage application, 320 g/ha, three weeks after application
# Outline: (§1)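 Sow seeds spot-wise in sterilized diluvial soil; cover with ~1.5 cm soil. Grow 14 days in greenhouse, 25° C. to 30° C. Spray foliage with emulsion diluted to predetermined amount. Rate effect after 3 weeks.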
# windgrass [2] = test: Test Example 5: herbicidal effect by foliage application, plastic box (Table 20, symbol L); assay type: in vivo, windgrass (Apera spica-venti); settings: foliage application, 320 g/ha, three weeks after application
# Outline: as §1
# persian speedwell [3] = test: Test Example 4: herbicidal effect by soil treatment (Table 19, symbol R); assay type: in vivo, Persian speedwell (Veronica persica); settings: amount of applied herbicide 320 g/ha
# Outline: (§2)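 Applied as a water-diluted emulsion, the compound was sprayed onto soil covering newly sown seeds. Evaluation came three weeks after application, in a greenhouse held at 25° C. to 30° C.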
# lambsquarters [4] = test: Test Example 5: herbicidal effect by foliage application, plastic box (Table 20, symbol O); assay type: in vivo, lambsquarters (Chenopodium album); settings: foliage application, 320 g/ha, three weeks after application
# Outline: as §1
# chickweed [5] = test: Test Example 4: herbicidal effect by soil treatment (Table 19, symbol P); assay type: in vivo, common chickweed (Stellaria media); settings: amount of applied herbicide 320 g/ha
# Outline: as §2
# wild oat [6] = test: Test Example 5: herbicidal effect by foliage application, plastic box (Table 20, symbol I); assay type: in vivo, wild oat (Avena fatua); settings: foliage application, 320 g/ha, three weeks after application
# Outline: as §1
# velvetleaf [7] = test: Test Example 5: herbicidal effect by foliage application, plastic box (Table 20, symbol M); assay type: in vivo, velvetleaf (Abutilon theophrasti); settings: foliage application, 320 g/ha, three weeks after application
# Outline: as §1
# barnyard grass [8] = test: Test Example 5: herbicidal effect by foliage application, plastic box (Table 20, symbol H); assay type: in vivo, barnyard grass (Echinochloa crus-galli); settings: foliage application, 320 g/ha, three weeks after application
# Outline: as §1
# green foxtail [9] = test: Test Example 4: herbicidal effect by soil treatment (Table 19, symbol G); assay type: in vivo, green foxtail (Setaria viridis); settings: amount of applied herbicide 320 g/ha
# Outline: as §2
# wild oat [10] = test: Test Example 4: herbicidal effect by soil treatment (Table 19, symbol I); assay type: in vivo, wild oat (Avena fatua); settings: amount of applied herbicide 320 g/ha
# Outline: as §2
# blackgrass [11] = test: Test Example 4: herbicidal effect by soil treatment (Table 19, symbol J); assay type: in vivo, blackgrass (Alopecurus myosuroides); settings: amount of applied herbicide 320 g/ha
# Outline: as §2
# southern crabgrass [12] = test: Test Example 4: herbicidal effect by soil treatment (Table 19, symbol F); assay type: in vivo, southern crabgrass (Digitaria ciliaris); settings: amount of applied herbicide 320 g/ha
# Outline: as §2
# persian speedwell [13] = test: Test Example 5: herbicidal effect by foliage application, plastic box (Table 20, symbol R); assay type: in vivo, Persian speedwell (Veronica persica); settings: foliage application, 320 g/ha, three weeks after application
# Outline: as §1
# velvetleaf [14] = test: Test Example 4: herbicidal effect by soil treatment (Table 19, symbol M); assay type: in vivo, velvetleaf (Abutilon theophrasti); settings: amount of applied herbicide 320 g/ha
# Outline: as §2
# Italian ryegrass [15] = test: Test Example 4: herbicidal effect by soil treatment (Table 19, symbol K); assay type: in vivo, Italian ryegrass (Lolium multiflorum); settings: amount of applied herbicide 320 g/ha
# Outline: as §2
# windgrass [16] = test: Test Example 4: herbicidal effect by soil treatment (Table 19, symbol L); assay type: in vivo, windgrass (Apera spica-venti); settings: amount of applied herbicide 320 g/ha
# Outline: as §2
# lambsquarters [17] = test: Test Example 4: herbicidal effect by soil treatment (Table 19, symbol O); assay type: in vivo, lambsquarters (Chenopodium album); settings: amount of applied herbicide 320 g/ha
# Outline: as §2
# Italian ryegrass [18] = test: Test Example 5: herbicidal effect by foliage application, plastic box (Table 20, symbol K); assay type: in vivo, Italian ryegrass (Lolium multiflorum); settings: foliage application, 320 g/ha, three weeks after application
# Outline: as §1
# barnyard grass [19] = test: Test Example 4: herbicidal effect by soil treatment (Table 19, symbol H); assay type: in vivo, barnyard grass (Echinochloa crus-galli); settings: amount of applied herbicide 320 g/ha
# Outline: as §2
# southern crabgrass [20] = test: Test Example 5: herbicidal effect by foliage application, plastic box (Table 20, symbol F); assay type: in vivo, southern crabgrass (Digitaria ciliaris); settings: foliage application, 320 g/ha, three weeks after application
# Outline: as §1
# barnyard grass [21] = test: Test Example 3: herbicidal effect by foliage application, Wagner pot (Table 18, symbol H); assay type: in vivo, barnyard grass (Echinochloa crus-galli); settings: for herbicidal effect on barnyard grass (H): 320 g/ha
# Outline: (§3)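 Plants were sown in alluvial soil held under 0.1–0.5 cm standing water and grown 14 days in a greenhouse at 25–30 °C. An emulsifiable formulation, water-diluted to the set dose, was then sprayed onto the foliage, and effects were scored three weeks later using previously defined criteria.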
# Chinese sprangletop = test: Test Example 3: herbicidal effect by foliage application, Wagner pot (Table 18, symbol D); assay type: in vivo, chinese sprangletop (Leptochloa chinensis); settings: for herbicidal effect on Chinese sprangletop (D): 320 g/ha
# Outline: as §3
# green foxtail [22] = test: Test Example 5: herbicidal effect by foliage application, plastic box (Table 20, symbol G); assay type: in vivo, green foxtail (Setaria viridis); settings: foliage application, 320 g/ha, three weeks after application
# Outline: as §1
# blackgrass [23] = test: Test Example 5: herbicidal effect by foliage application, plastic box (Table 20, symbol J); assay type: in vivo, blackgrass (Alopecurus myosuroides); settings: foliage application, 320 g/ha, three weeks after application
# Outline: as §1
# chickweed [24] = test: Test Example 5: herbicidal effect by foliage application, plastic box (Table 20, symbol P); assay type: in vivo, common chickweed (Stellaria media); settings: foliage application, 320 g/ha, three weeks after application
# Outline: as §1
# rice flat sedge = test: Test Example 3: herbicidal effect by foliage application, Wagner pot (Table 18, symbol E); assay type: in vivo, rice flat sedge (Cyperus iria); settings: for herbicidal effect on rice flat sedge (E): 320 g/ha
# Outline: as §3
# redroot pigweed [25] = test: Test Example 4: herbicidal effect by soil treatment (Table 19, symbol N); assay type: in vivo, redroot pigweed (Amaranthus retroflexus); settings: amount of applied herbicide 320 g/ha
# Outline: as §2
# [26] = amount of applied herbicide 320 g/ha
Compound,"N: redroot pigweed, herbicidal effect grade (redroot pigweed [1])","L: windgrass, herbicidal effect grade (windgrass [2])","R: persian speedwell, herbicidal effect grade (persian speedwell [3])","O: lambsquarters, herbicidal effect grade (lambsquarters [4])","P: chickweed, herbicidal effect grade (chickweed [5])","I: wild oat, herbicidal effect grade (wild oat [6])","M: velvetleaf, herbicidal effect grade (velvetleaf [7])","H: barnyard grass, herbicidal effect grade (barnyard grass [8])","G: green foxtail, herbicidal effect grade (green foxtail [9])","I: wild oat, herbicidal effect grade (wild oat [10])","J: blackgrass, herbicidal effect grade (blackgrass [11])","F: southern crabgrass, herbicidal effect grade (southern crabgrass [12])","R: persian speedwell, herbicidal effect grade (persian speedwell [13])","M: velvetleaf, herbicidal effect grade (velvetleaf [14])","K: Italian ryegrass, herbicidal effect grade (Italian ryegrass [15])","L: windgrass, herbicidal effect grade (windgrass [16])","O: lambsquarters, herbicidal effect grade (lambsquarters [17])","K: Italian ryegrass, herbicidal effect grade (Italian ryegrass [18])","H: barnyard grass, herbicidal effect grade (barnyard grass [19])","F: southern crabgrass, herbicidal effect grade (southern crabgrass [20])",also measured
Cc1nn(C)c(=O)c(-c2c(-c3ccc(Cl)cc3)sc3cc(Cl)ccc23)c1O [3-033],5 (Herbicidal rate of 90% or more (almost completely withered)),4 (Herbicidal rate of 70% or more and less than 90%),3 (Herbicidal rate of 40% or more and less than 70%),4 (Herbicidal rate of 70% or more and less than 90%),2 (Herbicidal rate of 20% or more and less than 40%),4 (Herbicidal rate of 70% or more and less than 90%),4 (Herbicidal rate of 70% or more and less than 90%),4 (Herbicidal rate of 70% or more and less than 90%),0 (Herbicidal rate of 5% or less (almost no effect)),0 (Herbicidal rate of 5% or less (almost no effect)),0 (Herbicidal rate of 5% or less (almost no effect)),0 (Herbicidal rate of 5% or less (almost no effect)),5 (Herbicidal rate of 90% or more (almost completely withered)),0 (Herbicidal rate of 5% or less (almost no effect)),4 (Herbicidal rate of 70% or more and less than 90%),3 (Herbicidal rate of 40% or more and less than 70%),3 (Herbicidal rate of 40% or more and less than 70%),4 (Herbicidal rate of 70% or more and less than 90%),0 (Herbicidal rate of 5% or less (almost no effect)),3 (Herbicidal rate of 40% or more and less than 70%),"herbicidal effect on H: barnyard grass (barnyard grass [21]; [26]): 4 (Herbicidal rate of 70% or more and less than 90%); herbicidal effect on D: Chinese sprangletop (Chinese sprangletop; [26]): 3 (Herbicidal rate of 40% or more and less than 70%); G: green foxtail, herbicidal effect grade (green foxtail [22]): 5 (Herbicidal rate of 90% or more (almost completely withered)); J: blackgrass, herbicidal effect grade (blackgrass [23]): 4 (Herbicidal rate of 70% or more and less than 90%); P: chickweed, herbicidal effect grade (chickweed [24]): 5 (Herbicidal rate of 90% or more (almost completely withered)); herbicidal effect on E: rice flat sedge (rice flat sedge; [26]): 5 (Herbicidal rate of 90% or more (almost completely withered)); N: redroot pigweed, herbicidal effect grade (redroot pigweed [25]): 4 (Herbicidal rate of 70% or more and less than 90%)"
CCCC(=O)Oc1c(C)nn(C)c(=O)c1-c1c(-c2ccccc2OC)sc2cc(Cl)ccc12 [3-036],5 (Herbicidal rate of 90% or more (almost completely withered)),0 (Herbicidal rate of 5% or less (almost no effect)),3 (Herbicidal rate of 40% or more and less than 70%),3 (Herbicidal rate of 40% or more and less than 70%),3 (Herbicidal rate of 40% or more and less than 70%),1 (Herbicidal rate of 5% or more and less than 20%),4 (Herbicidal rate of 70% or more and less than 90%),5 (Herbicidal rate of 90% or more (almost completely withered)),2 (Herbicidal rate of 20% or more and less than 40%),0 (Herbicidal rate of 5% or less (almost no effect)),0 (Herbicidal rate of 5% or less (almost no effect)),1 (Herbicidal rate of 5% or more and less than 20%),5 (Herbicidal rate of 90% or more (almost completely withered)),2 (Herbicidal rate of 20% or more and less than 40%),0 (Herbicidal rate of 5% or less (almost no effect)),3 (Herbicidal rate of 40% or more and less than 70%),3 (Herbicidal rate of 40% or more and less than 70%),0 (Herbicidal rate of 5% or less (almost no effect)),3 (Herbicidal rate of 40% or more and less than 70%),1 (Herbicidal rate of 5% or more and less than 20%),"herbicidal effect on barnyard grass (H) (barnyard grass [21]): 5 (Herbicidal rate of 90% or more (almost completely withered)); herbicidal effect on Chinese sprangletop (D) (Chinese sprangletop): 0 (Herbicidal rate of 5% or less (almost no effect)); G: green foxtail, herbicidal effect grade (green foxtail [22]): 3 (Herbicidal rate of 40% or more and less than 70%); J: blackgrass, herbicidal effect grade (blackgrass [23]): 0 (Herbicidal rate of 5% or less (almost no effect)); P: chickweed, herbicidal effect grade (chickweed [24]): 5 (Herbicidal rate of 90% or more (almost completely withered)); herbicidal effect on rice flat sedge (E) (rice flat sedge): 4 (Herbicidal rate of 70% or more and less than 90%); N: redroot pigweed, herbicidal effect grade (redroot pigweed [25]): 5 (Herbicidal rate of 90% or more (almost completely withered))"
COc1ccc(-c2sc3cc(Cl)ccc3c2-c2c(O)c(C)nn(C)c2=O)cc1 [3-037],5 (Herbicidal rate of 90% or more (almost completely withered)),0 (Herbicidal rate of 5% or less (almost no effect)),3 (Herbicidal rate of 40% or more and less than 70%),4 (Herbicidal rate of 70% or more and less than 90%),3 (Herbicidal rate of 40% or more and less than 70%),0 (Herbicidal rate of 5% or less (almost no effect)),5 (Herbicidal rate of 90% or more (almost completely withered)),0 (Herbicidal rate of 5% or less (almost no effect)),0 (Herbicidal rate of 5% or less (almost no effect)),0 (Herbicidal rate of 5% or less (almost no effect)),0 (Herbicidal rate of 5% or less (almost no effect)),0 (Herbicidal rate of 5% or less (almost no effect)),5 (Herbicidal rate of 90% or more (almost completely withered)),0 (Herbicidal rate of 5% or less (almost no effect)),0 (Herbicidal rate of 5% or less (almost no effect)),0 (Herbicidal rate of 5% or less (almost no effect)),3 (Herbicidal rate of 40% or more and less than 70%),0 (Herbicidal rate of 5% or less (almost no effect)),0 (Herbicidal rate of 5% or less (almost no effect)),0 (Herbicidal rate of 5% or less (almost no effect)),"herbicidal effect on barnyard grass (H) (barnyard grass [21]): 4 (Herbicidal rate of 70% or more and less than 90%); herbicidal effect on Chinese sprangletop (D) (Chinese sprangletop): 3 (Herbicidal rate of 40% or more and less than 70%); G: green foxtail, herbicidal effect grade (green foxtail [22]): 0 (Herbicidal rate of 5% or less (almost no effect)); J: blackgrass, herbicidal effect grade (blackgrass [23]): 0 (Herbicidal rate of 5% or less (almost no effect)); P: chickweed, herbicidal effect grade (chickweed [24]): 5 (Herbicidal rate of 90% or more (almost completely withered)); herbicidal effect on rice flat sedge (E) (rice flat sedge): 4 (Herbicidal rate of 70% or more and less than 90%); N: redroot pigweed, herbicidal effect grade (redroot pigweed [25]): 0 (Herbicidal rate of 5% or less (almost no effect))"
